From patent publication US8067615B2, “Sulphonylpyrroles” (4SC AG, priority 2004, dated 2011) come the findings set out here.

Data set [1] deals with HeLa cervical carcinoma cells. Nature of the data set: Cellular cytotoxicity assay (Alamar Blue / Resazurin). Type of data set: cell-based. Particulars: Homo sapiens, 48 hours incubation. As to the method: The anti-proliferative activity of the histone deacetylase inhibitory compounds as described herein, was evaluated with the HeLa cervical carcinoma cell line (ATCC CCL2) using the Alamar Blue (Resazurin) cell viability assay (O'Brien et al. Eur J Biochem 267, 5421-5426, 2000). Resazurin is reduced to the fluorescent resorufin by cellular dehydrogenase activity, correlating with viable, proliferating cells. Test compounds were dissolved as 10 mM solutions in dimethylsulfoxide (DMSO) and subsequently diluted in semi-logarithmic steps. HeLa cells were seeded into 96 well flat bottom plates at a density of 3000 cells per well in a volume of […] per well. 24 hours after seeding 1 μl each of the compound dilutions were added into each well of the 96 Well plate. Each compound dilution was tested as quadruplicates. Wells containing untreated control cells were filled with 200 μl DMEM medium containing 0.5% v:v DMSO. The cells were then incubated with the substances for 48 hours at 37° C. in a humidified atmosphere containing 5% carbon dioxide. To determine the viability of the cells, 20 μl of an Resazurin solution (Sigma; 90 mg/l) were added. After 4 hours incubation at 37° C. the fluorescence was measured at an […] of 544 nm and an emission of 590 nm. For the calculation of the cell viability the emission value from untreated cells was set as 100% viability and the emission rates of treated cells were set in relation to the values of untreated cells. Viabilities were expressed as % values. The corresponding IC50 values of the compounds for cytotoxic activity are determined from the concentration-effect curves by means of non-linear regression.
A general note: Resazurin is reduced to fluorescent resorufin, in cell work by metabolically active cells.

Data set [2] has as its system histone H3K23 hyperacetylation in HeLa cervical carcinoma cells. Nature of the data set: Cellular histone H3 hyperacetylation assay. In kind it is cell-based. The following applies: Homo sapiens, 24 h with compound, read-out: Induction of histone H3K23 hyperacetylation EC50. The source says:
To assess the cellular efficacy of an histone deacetylase inhibitor in vitro, an assay was set up in black clear-bottom 96-well plates and optimized for use on the Cellomics “ArrayScan II” platform for a quantitative calculation of […] acetylation. The protocol uses a polyclonal rabbit antibody, specifically binding to acetylated lysine 23 of human histone H3 on fixed cells with an Alexa Fluor 488 labeled goat anti rabbit-IgG used for counterstaining (Braunger et al. AACR annual conference 2003, Abstract 4556). 5×10^3 HeLa cervical carcinoma cells/well (ATCC CCL-2) in 200 μl Dulbecco's modified Eagle's medium (DMEM) containing 10% fetal calf serum were seeded at day 1 in Packard view plates and incubated for 24 h under standard cell culture conditions. On day 2, 2 μl test compound (100× final concentration) was added and incubation continued for further 24 h. On day 3, the culture medium was discarded and attached cells fixed for 15 min at room temperature by addition of 100 μl fixation buffer (3.7% v:v formaldehyde in phosphate buffered saline/PBS). After discarding the fixation buffer and one wash with PBS, cells were permeabilized at room temperature by addition of 100 μl/well permeabilization buffer (30.8 mM NaCl, 0.54 mM Na2HPO4, 0.31 mM KH2PO4, 5% v:v Triton X-100) for 15 min at room temperature. After discarding the permeabilization buffer and addition of 100 μl/well blocking solution (PBS with 0.05% v:v Tween 20 and 5% w:v milk powder) for 30 min at room temperature, the 1st antibody (anti-K23 histone H3 antibody, Cell Signaling No. 9674) in blocking solution (50 μl/well) was added. After incubation for 1 h at 37° C., the wells were washed 5 times for 5 min at room temperature with wash buffer (PBS with 0.05% v:v Tween 20) before addition of the 2nd antibody (goat-anti-rabbit Alexa Fluor 488; MoBiTec No. A-11008) in blocking solution (50 μl/well). After further incubation for 30 min at 37° C., wells were washed 5 times for 5 min at RT with 100 μl wash buffer at room temperature. Finally, 100 μl/well PBS were added and image analysis performed on the Cellomics “ArrayScan II” platform. For calculation of EC50 values, the nuclear fluorescence in cells treated with and without a reference HDAC inhibitor like SAHA or NVP-LBH-589 were taken as a positive and negative control, respectively. For EC50 determination, the percentage of positive cells was determined and EC50 calculation done from concentration-effect curves by means of non-linear regression.

A word on the IC50: it is the concentration that gives 50% inhibition. A higher IC50 goes with a need for much substance. Molecule `O=C(/C=C/c1ccn(S(=O)(=O)c2ccc(CNCc3ccc4[nH]ccc4c3)cc2)c1)NO` [Compound 15, (E)-N-Hydroxy-3-[1-(4-{[(1H-indol-5-ylmethyl)-amino]-methyl}-benzenesulfonyl)-1H-pyrrol-3-yl]-acrylamide] had a concentration for half-maximal inhibition (IC50) in data set [1] of 0.07 to 5 µM.

What is called melting point is the temperature, or range, at which the solid turns liquid. Turning to `Nc1ccccc1NC(=O)/C=C/c1ccn(S(=O)(=O)c2ccc(-c3ccncc3)cc2)c1` [Compound 20, (E)-N-(2-Amino-phenyl)-3-[1-(4-pyridin-4-yl-benzenesulfonyl)-1H-pyrrol-3-yl]-acrylamide], the melting point lay in the range of 244.2 to 246.5 °C. Moreover, in data set [1], the 50% inhibitory concentration (IC50) fell in the range of 0.07 to 5 µM. On to `O=C(/C=C/c1ccn(S(=O)(=O)c2ccc(CN(CCO)CCc3cc4ccccc4[nH]3)cc2)c1)NO` [Compound 28, (E)-N-Hydroxy-3-{1-[4-({(2-hydroxy-ethyl)-[2-(1H-indol-2-yl)-ethyl]-amino}-methyl)-benzenesulfonyl]-1H-pyrrol-3-yl}-acrylamide], for which the IC50 in data set [1] was in the range of 0.07 to 5 µM. The same measure, in the same setting: to `O=C(/C=C/c1ccn(S(=O)(=O)c2ccc(CNCc3c[nH]c4ccccc34)cc2)c1)NO` [Compound 12, (E)-N-Hydroxy-3-[1-(4-{[(1H-indol-3-ylmethyl)-amino]-methyl}-benzenesulfonyl)-1H-pyrrol-3-yl]-acrylamide] belongs 0.07 to 5 µM; to `Nc1ccccc1NC(=O)/C=C/c1ccn(S(=O)(=O)c2ccc(-c3ccccn3)s2)c1` [Compound 26, (E)-N-(2-Amino-phenyl)-3-[1-(5-pyridin-2-yl-thiophene-2-sulfonyl)-1H-pyrrol-3-yl]-acrylamide], 0.07 to 5 µM. Consider `Nc1ccccc1NC(=O)/C=C/c1ccn(S(=O)(=O)c2ccc(-c3cccnc3)cc2)c1` [Compound 21, (E)-N-(2-Amino-phenyl)-3-[1-(4-pyridin-3-yl-benzenesulfonyl)-1H-pyrrol-3-yl]-acrylamide], for which the melting point lay within 199.7 to 202.3 °C. The same molecule returned an IC50 in data set [1] of 0.07 to 5 µM. In turn, `Nc1ccccc1NC(=O)C=Cc1ccn(S(=O)(=O)c2ccc(-c3cn[nH]c3)cc2)c1` [Compound 22, (E)-N-(2-Amino-phenyl)-3-{1-[4-(1H-1-pyrazol-4-yl)-benzenesulfonyl]-1H-pyrrol-3-yl}-acrylamide] gave a melting point of 232.3 to 240.9 °C. In data set [1], this molecule gave a half-inhibitory concentration (IC50) of 0.07 to 5 µM. One may read the EC50 as the concentration at which the effect is half-maximal. Turning to `CN(CCc1cc2ccccc2[nH]1)Cc1ccc(S(=O)(=O)n2ccc(/C=C/C(=O)NO)c2)cc1` [Compound 9, (E)-N-Hydroxy-3-(1-[4-(([2-(1H-indol-2-yl)-ethyl]-methyl-amino)-methyl)-benzenesulfonyl]-1H-pyrrol-3-yl)-acrylamide], the EC50 in data set [2] is 2.15 to 51.3 µM. In data set [1], this molecule gave an IC50 of 0.07 to 5 µM. Molecule `O=C(/C=C/c1ccn(S(=O)(=O)c2ccc(-c3ccncc3)cc2)c1)NO` [Compound 18, (E)-N-Hydroxy-3-[1-(4-pyridin-4-yl-benzenesulfonyl)-1H-pyrrol-3-yl]-acrylamide] returned a melting point of 219.3 to 221.4 °C. For the same molecule, the half-maximal inhibitory concentration (IC50) in data set [1] is 0.07 to 5 µM.

As for `O=C(/C=C/c1ccn(S(=O)(=O)c2ccc(-c3cn[nH]c3)cc2)c1)NO` [Compound 19, (E)-N-Hydroxy-3-{1-[4-(1H-pyrazol-4-yl)-benzenesulfonyl]-1H-pyrrol-3-yl}-acrylamide], the melting point was 203.8 to 211.9 °C. This molecule showed an IC50 in data set [1] of 0.07 to 5 µM. As for `CC(C)CNCc1ccc(S(=O)(=O)n2ccc(/C=C/C(=O)NO)c2)cc1` [Compound 14, (E)-N-Hydroxy-3-{1-[4-(isobutylamino-methyl)-benzenesulfonyl]-1H-pyrrol-3-yl}-acrylamide], in data set [1], the IC50 was in the range of 0.07 to 5 µM. On to `Nc1ccccc1NC(=O)C=Cc1ccn(S(=O)(=O)c2ccc(-c3ccccc3)cc2)c1` [Compound 7, (E)-N-(2-Amino-phenyl)-3-[1-(biphenyl-4-sulfonyl)-1H-1-pyrrol-3-yl]-acrylamide], for which the concentration for a half-maximal effect (EC50) in data set [2] lay in the range of 2.15 to 51.3 µM. In data set [1], this molecule had an IC50 of 0.8 to 21.6 µM.

`O=C(/C=C/c1ccn(S(=O)(=O)c2ccc(CNCc3ccccc3)cc2)c1)NO` [Compound 13, (E)-3-{1-[4-(Benzylamino-methyl)-benzenesulfonyl]-1H-pyrrol-3-yl}-N-hydroxy-acrylamide] displayed a 50% inhibitory concentration (IC50) in data set [1] of 0.07 to 5 µM.

With `Cc1ccc(S(=O)(=O)n2ccc(C=CC(=O)NO)c2)cc1` [Compound 1, (E)-N-Hydroxy-3-[1-(toluene-4-sulfonyl)-1-H-pyrrol-3-yl]-acrylamide], the EC50 in data set [2] lay in the range of 2.15 to 51.3 µM. For the same molecule, the IC50 in data set [1] fell in the range of 0.8 to 21.6 µM. For `O=C(/C=C/c1ccn(S(=O)(=O)c2ccc(-c3ccccc3)cc2)c1)NO` [Compound 3, (E)-3-[1-(Biphenyl-4-sulfonyl)-1H-pyrrol-3-yl]-N-hydroxy-acrylamide] the same measures were 2.15 to 51.3 µM and 0.8 to 21.6 µM. `O=C(/C=C/c1ccn(S(=O)(=O)c2ccc(-c3ccccn3)s2)c1)NO` [Compound 24, (E)-N-Hydroxy-3-[1-(5-pyridin-2-yl-thiophene-2-sulfonyl)-1H-pyrrol-3-yl]-acrylamide] registered a half-inhibitory concentration (IC50) in data set [1] of 0.07 to 5 µM.

As for `CN(C)c1ccc(S(=O)(=O)n2ccc(/C=C/C(=O)Nc3ccccc3N)c2)cc1` [Compound 8, (E)-N-(2-Amino-phenyl)-3-[1-(4-dimethylamino-benzenesulfonyl)-1H-pyrrol-3-yl]-acrylamide], the EC50 in data set [2] lay within 2.15 to 51.3 µM. Further, the half-maximal inhibitory concentration (IC50) in data set [1] is 0.8 to 21.6 µM. For `CN(C)c1ccc(S(=O)(=O)n2ccc(C=CC(=O)NO)c2)cc1` [Compound 4, (E)-3-[1-(4-Dimethylamino-benzenesulfonyl)-1H-1-pyrrol-3-yl]-N-hydroxy-acrylamide] the same measures were 2.15 to 51.3 µM and 0.8 to 21.6 µM. `NCc1ccc(S(=O)(=O)n2ccc(/C=C/C(=O)NO)c2)cc1` [Compound 17, (E)-3-[1-(4-Aminomethyl-benzenesulfonyl)-1H-pyrrol-3-yl]-N-hydroxy-acrylamide] displayed a melting point of 227 to 228.6 °C. Further, the IC50 in data set [1] lay within 0.07 to 5 µM. The molecule `O=C(/C=C/c1ccn(S(=O)(=O)c2ccc(-n3cccn3)cc2)c1)NO` [Compound 25, (E)-N-Hydroxy-3-[1-(4-pyrazol-1-yl-benzenesulfonyl)-1H-pyrrol-3-yl]-acrylamide] gave a melting point of 160.7 to 166.6 °C. In data set [1], this molecule registered a half-maximal inhibitory concentration (IC50) of 0.07 to 5 µM. With `CN(C)Cc1ccc(S(=O)(=O)n2ccc(/C=C/C(=O)NO)c2)cc1` [Compound 10, (E)-3-[1-(4-Dimethylaminomethyl-benzenesulfonyl)-1H-pyrrol-3-yl]-N-hydroxy-acrylamide], the concentration giving a half-maximal response (EC50) in data set [2] was 2.15 to 51.3 µM. The molecule further returned a half-maximal inhibitory concentration (IC50) in data set [1] of 0.07 to 5 µM. `O=C(/C=C/c1ccn(S(=O)(=O)c2ccc(CNCc3ccncc3)cc2)c1)NO` [Compound 16, (E)-N-Hydroxy-3-[1-(4-{[(pyridin-4-ylmethyl)-amino]-methyl}-benzenesulfonyl)-1H-pyrrol-3-yl]-acrylamide] registered an IC50 in data set [1] of 0.07 to 5 µM. In turn, `O=C(/C=C/c1ccn(S(=O)(=O)c2cccc(-c3ccccc3)c2)c1)NO` [Compound 23, (E)-3-[1-(Biphenyl-3-sulfonyl)-1H-pyrrol-3-yl]-N-hydroxy-acrylamide] returned a melting point of 114 to 159.4 °C. Further, in data set [1], the IC50 lay within 0.07 to 5 µM. For the molecule `O=C(/C=C/c1ccn(S(=O)(=O)c2ccc(CNCc3cccnc3)cc2)c1)NO` [Compound 11, (E)-N-Hydroxy-3-[1-(4-{[(pyridin-3-ylmethyl)-amino]-methyl}-benzenesulfonyl)-1H-pyrrol-3-yl]-acrylamide], the IC50 in data set [1] is 0.07 to 5 µM.
